Measurements as given in ChEMBL document CHEMBL3813619, “Feeling Nature's PAINS: Natural Products, Natural Product Drugs, and Pan Assay Interference Compounds (PAINS)” (J Nat Prod, 2016).

Experiments:
Rattus norvegicus = assay: Antiinflammatory activity in po dosed rat assessed as inhibition of reverse passive arthus reaction; type: functional
[1] = molecular target: Potassium voltage-gated channel subfamily A member 3 (Mus musculus, UniProt P16390); assay: Inhibition of mouse Kv1.3 expressed in L929 cells at -80 mV holding potential by whole cell patch-clamp method; type: cell-based
[2] = Selectivity ratio of mouse Kv1.3 to ratio of KCa3.1 (unknown origin)

Chain of Potassium voltage-gated channel subfamily A member 3 (P16390 whole entry): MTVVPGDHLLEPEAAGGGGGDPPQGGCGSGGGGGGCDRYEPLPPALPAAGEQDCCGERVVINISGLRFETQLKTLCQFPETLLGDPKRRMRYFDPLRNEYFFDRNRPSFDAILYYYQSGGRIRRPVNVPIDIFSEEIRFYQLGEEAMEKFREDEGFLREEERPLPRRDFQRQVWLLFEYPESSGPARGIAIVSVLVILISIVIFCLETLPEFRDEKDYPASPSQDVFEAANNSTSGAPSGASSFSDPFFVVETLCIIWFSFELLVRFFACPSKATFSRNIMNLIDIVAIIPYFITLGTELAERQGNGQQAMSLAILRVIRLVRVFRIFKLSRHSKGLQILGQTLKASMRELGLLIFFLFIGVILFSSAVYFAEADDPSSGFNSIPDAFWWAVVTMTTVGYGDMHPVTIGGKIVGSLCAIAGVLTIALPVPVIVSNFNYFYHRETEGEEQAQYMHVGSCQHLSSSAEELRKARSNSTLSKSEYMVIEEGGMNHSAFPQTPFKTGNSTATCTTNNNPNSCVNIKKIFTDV

Compound	ED50 (Rattus norvegicus)	EC50 [1]	Selectivity ratio [2]
Cc1cc(=O)c2c(O)cc(O)c([C@H]3CCN(C)C[C@H]3O)c2o1 [ROHITUKINE]	2.5 mg/kg	–	–
COc1c(C(C)=O)c(O)c(OCCCc2ccccc2)c2occc12	–	1000 nM	10
